One data set deals with P-gp (MDR1) (Homo sapiens (Human), UniProt P08183). Put plainly: MDR1 LLC-PK1 permeability assay: efflux ratio. It is filed as in vitro ADME. The conditions noted are these: pig. From the text: Final organic concentration in the assay was 1%.
In the next data set the test system is A375 cells. Put plainly: Cellular phospho-ERK inhibition assay in A375 cells. It is filed as cell-based. Conditions: Homo sapiens, A-375, A375 cells (head prints A357), 2 hours treatment, read-out: A357 cell IC50. The method in brief: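 A375 (DMEM) or H1755 (RPMI) cells in 10% FBS treated 2 h at 37 °C with 9-point series, 66 pM–10 μM, 0.25% DMSO. Phospho-ERK1/2 (Thr202/Tyr204) measured by In Cell Western, normalised to GAPDH and to DMSO and 10 μM binimetinib controls; IC50 by 4-parameter fit.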

Data set [1] concerns NCI-H1666 (BRAF G466V) cells. Put plainly: Proliferation assay (CellTiter-Glo) in NCI-H1666 cells. It is filed as cell-based. The conditions noted are these: Homo sapiens, 3-5 day incubation. On the procedure: The compounds of Example 13, Example 14 and Example 126 were evaluated in a proliferation assay in two mutant BRAF Class III cell lines: NCI-H1666 (BRAF^G466V) and WM3629 cells (BRAF^D594G/NRAS^G12D). NCI-H1666 cells were obtained from the American Type Culture Collection (ATCC, Rockville, MD) and WM3629 cells were obtained from Rockland Immunochemicals (Limerick, PA). Cells were maintained in RPMI growth medium containing 10% FBS.
Cells were harvested according to standard protocols, counted, and plated onto flat-bottom, 96-well tissue culture plates (Costar #3599) at 2000-5000 cells/well in 100 μL/well of growth medium containing 10% FBS. Cells were incubated at 37° C. with 5% CO2 overnight then treated with inhibitors prepared as a 9-point, 1:3.33 fold dilution series with final compound concentrations ranging from 66 pM-10 μM and a constant DMSO concentration of 0.25%. Control wells contained 0.25% DMSO alone. After a 3-5 day incubation at 37° C., 5% CO2, cell viability was determined by adding 100 μL CellTiter-Glo® Reagent (Promega) to each well and incubated for 15 minutes at room temperature. “Day 0” controls were determined by performing CellTiter-Glo© assay on DMSO control wells at the time of compound treatment (“Day 0” control=0 POC). Luminescence was measured on a Cytation 5 plate reader (BioTek) and values were converted to POC using the following equation:
[formula] • Where: • Xmax Average DMSO Controls • Xmin Average “Day 0” DMSO Controls • IC50 values were calculated using a 4-parameter fit in XLfit software and are shown in Table A2.
Background: ATP-based viability assays read luminescence as a measure of living cells.

Data set [2] concerns the target full-length FLAG-tagged B-Raf(V600E) (Homo sapiens (Human), UniProt P15056, V600E). Put plainly: BRAF V600E enzyme assay (TR-FRET competitive displacement). It is filed as binding. The conditions noted are these: averaged IC50; TR-FRET tracer displacement, 60 min. The method in brief: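 Displacement of 50 nM Tracer 1710 from 5 nM full-length N-terminally FLAG-tagged B-Raf(V600E), detected by TR-FRET with 0.5 nM Eu anti-FLAG antibody, in 25 mM HEPES pH 7.4, 10 mM MgCl2, 2% DMSO; 60 min at ~22 °C. Compounds 11-point, 3-fold from 10 μM; IC50 from 4-parameter fit at 50 POC.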

Structures are written as SMILES.

Sequence of P-gp (MDR1) (P08183 whole entry, species assumed): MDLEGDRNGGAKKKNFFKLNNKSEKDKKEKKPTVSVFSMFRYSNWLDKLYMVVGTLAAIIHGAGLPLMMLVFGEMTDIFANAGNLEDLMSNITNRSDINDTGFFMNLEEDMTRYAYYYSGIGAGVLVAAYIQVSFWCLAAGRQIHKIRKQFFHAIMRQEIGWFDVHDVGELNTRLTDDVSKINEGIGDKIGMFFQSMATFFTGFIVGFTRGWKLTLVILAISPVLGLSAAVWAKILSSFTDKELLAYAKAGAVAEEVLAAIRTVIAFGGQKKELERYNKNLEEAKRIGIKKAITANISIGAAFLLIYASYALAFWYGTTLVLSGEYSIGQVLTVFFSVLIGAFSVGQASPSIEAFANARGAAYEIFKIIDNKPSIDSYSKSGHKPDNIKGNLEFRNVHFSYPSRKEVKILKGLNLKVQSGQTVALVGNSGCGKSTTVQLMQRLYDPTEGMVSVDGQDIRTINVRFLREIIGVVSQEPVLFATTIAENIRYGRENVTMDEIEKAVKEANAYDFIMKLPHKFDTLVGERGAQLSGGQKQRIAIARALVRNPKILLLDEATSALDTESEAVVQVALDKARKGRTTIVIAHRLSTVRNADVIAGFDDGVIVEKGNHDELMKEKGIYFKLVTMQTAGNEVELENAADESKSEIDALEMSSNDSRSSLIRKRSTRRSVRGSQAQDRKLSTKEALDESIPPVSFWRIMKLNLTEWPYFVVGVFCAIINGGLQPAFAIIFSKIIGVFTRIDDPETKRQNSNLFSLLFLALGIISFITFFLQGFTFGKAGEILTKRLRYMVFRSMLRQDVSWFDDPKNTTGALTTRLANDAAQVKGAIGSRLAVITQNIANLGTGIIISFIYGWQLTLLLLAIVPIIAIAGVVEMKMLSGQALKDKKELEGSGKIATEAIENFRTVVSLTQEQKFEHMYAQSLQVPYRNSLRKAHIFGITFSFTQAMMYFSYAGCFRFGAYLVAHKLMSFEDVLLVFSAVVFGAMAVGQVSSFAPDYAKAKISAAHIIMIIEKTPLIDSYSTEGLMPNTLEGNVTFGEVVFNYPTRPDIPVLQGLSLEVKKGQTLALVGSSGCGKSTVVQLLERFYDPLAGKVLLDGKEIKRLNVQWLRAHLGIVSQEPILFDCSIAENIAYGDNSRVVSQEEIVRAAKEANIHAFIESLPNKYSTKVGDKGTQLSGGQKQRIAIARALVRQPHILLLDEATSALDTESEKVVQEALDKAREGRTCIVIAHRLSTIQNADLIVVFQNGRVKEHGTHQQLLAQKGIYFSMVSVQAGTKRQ
Sequence of full-length FLAG-tagged B-Raf(V600E) (P15056 whole entry V600E): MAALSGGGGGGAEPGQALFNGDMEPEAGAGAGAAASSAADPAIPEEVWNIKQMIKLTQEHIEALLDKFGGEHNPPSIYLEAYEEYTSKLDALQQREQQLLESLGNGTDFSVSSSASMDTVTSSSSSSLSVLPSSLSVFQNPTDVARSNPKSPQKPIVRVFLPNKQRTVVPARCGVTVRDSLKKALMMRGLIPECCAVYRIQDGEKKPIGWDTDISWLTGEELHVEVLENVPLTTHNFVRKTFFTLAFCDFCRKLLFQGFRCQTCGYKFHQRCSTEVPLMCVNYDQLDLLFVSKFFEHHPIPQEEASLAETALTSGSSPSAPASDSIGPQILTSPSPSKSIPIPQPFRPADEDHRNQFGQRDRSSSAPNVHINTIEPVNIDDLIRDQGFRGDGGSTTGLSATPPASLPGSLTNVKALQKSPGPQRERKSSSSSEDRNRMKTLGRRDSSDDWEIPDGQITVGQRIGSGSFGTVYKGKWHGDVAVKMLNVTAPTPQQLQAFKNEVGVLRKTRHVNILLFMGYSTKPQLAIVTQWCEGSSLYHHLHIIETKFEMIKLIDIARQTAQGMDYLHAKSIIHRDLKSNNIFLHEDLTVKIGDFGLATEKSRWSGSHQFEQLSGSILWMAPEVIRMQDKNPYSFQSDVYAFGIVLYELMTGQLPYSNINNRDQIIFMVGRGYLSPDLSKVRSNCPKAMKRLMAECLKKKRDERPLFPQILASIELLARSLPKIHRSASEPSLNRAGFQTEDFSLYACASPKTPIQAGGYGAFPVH

A word on the efflux ratio: it is a quotient of directional permeabilities that is used to spot active efflux. As a reminder, the IC50 is the midpoint of a concentration-inhibition curve. As to `Cn1cnc2ccc(Nc3c(F)ccc(NS(=O)(=O)N4CC5CC4C5)c3Cl)c(F)c2c1=O` [Example 13, N-(2-chloro-4-fluoro-3-((5-fluoro-3-methyl-4-oxo-3,4-dihydroquinazolin-6-yl)amino)phenyl)-2-azabicyclo[2.1.1]hexane-2-sulfonamide], the efflux ratio at 2 h, 1 µM on P-gp (MDR1) worked out at 1.5. Further, the IC50 in the data set on A375 cells stood at 6 nM; in data set [1], 240 nM; in data set [2], 6 nM.
With `Cn1cnc2ccc(Nc3c(F)ccc(NS(=O)(=O)N4CC[C@@H](F)C4)c3Cl)c(F)c2c1=O` [Example 14, (R)-N-(2-chloro-4-fluoro-3-((5-fluoro-3-methyl-4-oxo-3,4-dihydroquinazolin-6-yl)amino)phenyl)-3-fluoropyrrolidine-1-sulfonamide], on P-gp (MDR1), the efflux ratio at 2 h, 1 µM was found to be 3.2. Besides, the half-maximal inhibitory concentration (IC50) turned out to be 3 nM in the data set with A375 cells, 120 nM in data set [1] and 5 nM in data set [2].
